# Assay results reported in article PMC10609081, “In Vivo Trafficking of the Anticancer Drug Tris(8-Quinolinolato) Gallium (III) (KP46) by Gallium-68/67 PET/SPECT Imaging” (Molecules, 2023).
# Legend:
# [1] = Distribution/partition coefficients (logD, logP), shake flask with gamma counting; assay type: physicochemical; conditions: tracer level, mean ± SD
# Protocol: Tracer-level [^68Ga]KP46 and [^68Ga]Ga-acetate solutions (5–20 µL, 0.3–0.5 MBq) were added to a pre-equilibrated mixture (500 µL/500 µL) of octanol/water (for logP measurement) or octanol/PBS (for logD7.4 measurement). Samples were vortexed for two minutes in a Multi Vortex Mixer V-32 (Grant Bio). From each layer, a sample of 200 µL was taken and its radioactivity measured using a gamma counter.
# [2] = molecular target: T1, human serum albumin (HSA) (Homo sapiens, UniProt P02768); assay: Binding to human serum albumin by size exclusion chromatography (PD MidiTrap G-25); assay type: in vitro ADME
# T1 construct: purchased Sigma Aldrich
# Protocol: Solutions of human apo-transferrin (apo-Tf, 2 mg/mL) and human serum albumin (HSA, 50 mg/mL) (both purchased from Sigma Aldrich) were dissolved in aqueous NaHCO3 (5 mM, pH = 8) and PBS (pH = 7.4), respectively. An amount of 1 MBq of tracer-level [^68Ga]KP46 (13–20 µL) or [^68Ga]gallium acetate (20–25 µL) was added to 1.2 mL of the apo-Tf solution and to a similar apo-Tf-free NaHCO3 solution (control). Similarly, [^68Ga]KP46 and [^68Ga]gallium acetate solutions were added to 1.5 mL PBS containing HSA or HSA-free PBS (control). The samples were incubated for 60 min at 37 °C (pH = 7–7.5). From each mixture, 0.5 mL was loaded into PD MidiTrap G-25 size exclusion chromatography cartridges that were preconditioned with 8 mL of NaHCO3 (5 mM) (for apo-Tf binding) or PBS (for HSA binding). Fractions (0.5 mL) were collected and counted with a Wallac gamma counter. Protein absorbance at 280 nm was measured using a Nanodrop spectrophotometer. To investigate the speciation of the Ga–KP46 complex in the presence of apo-Tf at later time points (up to 48 h), the experiment was repeated with ^67Ga.
# [3] = PET imaging and ex vivo biodistribution 4 h after intravenous injection, NSG mice bearing A375 xenografts (groups A, B); assay type: in vivo; conditions: i.v., tracer level
# Protocol: All animal experiments were performed in accordance with the Animals (Scientific Procedures) Act, 1986, with protocols approved by the Animal Welfare and Ethical Review Body for King’s College London under project and personal licences approved by the UK Home Office. Tumour xenograft studies were performed on female NSG mice or female athymic nude mice after injecting them subcutaneously in the right shoulder with 2.5 × 10^6 A375 cells in 100 µL of PBS. All in vivo studies were conducted between 14 and 24 days after inoculation, with tumour volumes between 100 mm^3 and 580 mm^3 (see Supplementary Materials, Figure S11).
# Intravenous [^68Ga]gallium acetate and [^68Ga]KP46: NSG mice bearing A375 xenografts were fasted for 12–14 h before the start of the experiment. Mice were anaesthetised with isoflurane and injected with tracer level [^68Ga]gallium acetate (group A, n = 5) or [^68Ga]KP46 (group B, n = 5) (13–18 MBq, <200 μL) via the tail vein. […] The organs were harvested, weighed, and gamma counted. […]
# PET/CT images were acquired with a nanoScan® PET/CT (Mediso Medical Imaging Systems, Budapest, Hungary) scanner operating in list mode using a 400–600 keV energy window and a coincidence window of 1:3. […] The data were then visualised and quantified using VivoQuant^© v.2.50 (InviCro, Boston, MA, USA) software. […] Images were coregistered and analysed using VivoQuant v2.50 (InviCro, Needham, MA, USA).
# T1 sequence (P02768 25-609): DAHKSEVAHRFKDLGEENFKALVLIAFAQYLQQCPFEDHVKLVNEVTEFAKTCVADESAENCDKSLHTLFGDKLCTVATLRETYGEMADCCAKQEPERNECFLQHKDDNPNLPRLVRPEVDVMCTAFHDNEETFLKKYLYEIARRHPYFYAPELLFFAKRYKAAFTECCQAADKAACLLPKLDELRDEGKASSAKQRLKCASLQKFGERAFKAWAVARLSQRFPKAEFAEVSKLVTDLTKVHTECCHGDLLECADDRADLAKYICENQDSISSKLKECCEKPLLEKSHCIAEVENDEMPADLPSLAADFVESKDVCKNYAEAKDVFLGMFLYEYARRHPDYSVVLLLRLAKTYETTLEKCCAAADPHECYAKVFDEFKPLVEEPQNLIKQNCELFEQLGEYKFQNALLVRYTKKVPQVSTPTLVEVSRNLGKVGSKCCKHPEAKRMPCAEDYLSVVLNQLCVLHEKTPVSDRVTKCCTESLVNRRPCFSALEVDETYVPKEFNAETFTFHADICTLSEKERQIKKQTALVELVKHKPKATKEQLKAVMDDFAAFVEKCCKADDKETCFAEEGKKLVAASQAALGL
smiles,measurement,setting,value
[68Ga+3].[O-]c1cccc2cccnc12.[O-]c1cccc2cccnc12.[O-]c1cccc2cccnc12 [[^68Ga]KP46],logD(octanol/PBS),[1]; octanol/PBS,1.90 ± 0.19
same,logP(octanol/water),[1]; octanol/water,2.33 ± 0.28
same,radioactivity coeluting with HSA,"[2]; 1 h incubation at 37 °C, HSA 50 mg/mL in PBS",about 16%
same,binding of radioactivity to HSA,[2]; incubated 1 h with HSA,significant binding
same,"tumour uptake, ex vivo biodistribution","[3]; 4 h, n = 5",2.6 ± 0.9 %ID/g
same,tumour uptake of 68Ga by PET/CT,[3]; by four hours,no visible tumour accumulation
